From US20240156856A1, “NOVEL APPLICATIONS OF HYALURONIC ACID FOR TREATMENT OF PAIN AND PRURITIS” (THE REGENTS OF THE UNIVERSITY OF CALIFORNIA, priority 2022, published 2024)
“Also recorded” adds a separate entry of the source.

Experiments:
[1] = test system: PGE2 hyperalgesia in male and female rats; assay: PGE2-induced mechanical hyperalgesia, Randall-Selitto paw-withdrawal test; format: in vivo, Sprague-Dawley rats; settings: for PGE2-induced hyperalgesia (mechanical nociceptive threshold): topical 2 μg/μL in 30 μL DMSO vehicle, 30 and 60 min after PGE2
Method: (§1) Experimental animals. Experiments were performed on 220-400 g male and female Sprague-Dawley rats, purchased from Charles River Laboratories (Hollister, CA, USA), housed three per cage, under a 12-hour light/dark cycle, in a temperature- and humidity-controlled animal care facility at the University of California, San Francisco. Food and water were available ad libitum. Experimental protocols were approved by the University of California, San Francisco, Institutional Animal Care and Use Committee, and adhered to the National Institutes of Health Guidelines for the care and use of laboratory animals.
(§2) Measurement of nociceptive threshold. Mechanical nociceptive threshold was quantified with an Ugo Basile Analgesymeter (Stoelting, Wood Dale, IL, USA), used to perform the Randall-Selitto paw-withdrawal test [61; 68; 69]. This device uses a dome-shaped plinth to apply a mechanical force that increases linearly with time, to the dorsum of a rat's hindpaw. To perform the Randall-Selitto paw-withdrawal test, rats were placed in cylindrical acrylic restrainers with lateral ports that allow access to the hind paw, as described previously. Rats were acclimatized to the testing procedure by placing them in restrainers for 1 h per day for 3 consecutive daily training sessions, and for 30-40 min prior to experiments.
(§3) Mechanical nociceptive threshold is defined as the force, in grams, applied by the plinth to the dorsum of the hindpaw, at which a rat withdraws its paw from the stimulus. Baseline paw-withdrawal threshold is defined as the mean of three readings taken before administration of test agents. To minimize experimenter bias, individuals conducting experiments were blinded to experimental treatments. Each experiment was performed on a different group of rats. Data are presented as mechanical nociceptive threshold, in grams (g) or percentage change from preintervention baseline.
Hyaluronans were initially dissolved in distilled water (dH2O) at a concentration of 10 μg/μL, stock solution, and further diluted by adding DMSO with three final concentrations of hyaluronan (1, 2 and 4 μg/μL), protamine or terpene; unless otherwise stated, the final concentration of DMSO was 75%. The DMSO vehicle was 75% DMSO in 0.9% saline. In one experiment, 500-1200 kDa hyaluronan was administered topically in 0.9% saline vehicle. PGE2 was dissolved in 0.9% saline at the same final concentration that we previously injected intradermally (100 ng/5 μL). […]

[2] = test system: rats with oxaliplatin CIPN; assay: Oxaliplatin CIPN mechanical hyperalgesia, Randall-Selitto paw-withdrawal test; format: in vivo, Sprague-Dawley rats
Method: as §1, §2, §3
Hyaluronans were initially dissolved in distilled water (dH2O) at a concentration of 10 μg/μL, stock solution, and further diluted by adding DMSO with three final concentrations of hyaluronan (1, 2 and 4 μg/μL), protamine or terpene; unless otherwise stated, the final concentration of DMSO was 75%. The DMSO vehicle was 75% DMSO in 0.9% saline. In one experiment, 500-1200 kDa hyaluronan was administered topically in 0.9% saline vehicle. PGE2 was dissolved in 0.9% saline at the same final concentration that we previously injected intradermally (100 ng/5 μL). In the experiments in which hyaluronan was dissolved in protamine or terpene vehicle, protamine was first dissolved in distilled water (dH2O) to a concentration of 5 μg/μ1, stock solution of hyaluronan was combined with protamine at the final concentration of 2 μg/μ1, in a volume of 3 μl, for topical administration; terpene was first dissolved in dH2O at the concentration of 2 μg/μ1, then hyaluronan was dissolved in stock solution of terpene to its final concentration of 2 μg/μ1, in a volume of 3 μl, for topical administration).
Oxaliplatin CIPN: Oxaliplatin was freshly dissolved in 0.9% saline at a concentration of 2 mg/mL just prior to its tail vein intravenous (i.v.) administration (1 mL/kg), to rats briefly anesthetized with isoflurane (2.5% in O2).
Hyaluronans (30 μL) were administered topically on the dorsum of the hind paw, dispensed from a P200 pipette (Gilson, Middleton, WI, USA) with a plastic pipette tip and then spread manually. […]
Before use, ODNs were reconstituted in nuclease-free 0.9% saline and then administered by the intrathecal (i.t.) route. As described previously, rats were anesthetized with isoflurane (2.5% in O2) and 120 μg of ODN, in a volume of 20 μL, injected i.t., using a syringe ([…]) attached to a 29-gauge hypodermic needle that was inserted into the subarachnoid space, between the L4 and L5 vertebrae. The i.t. site of the injectate was confirmed by a sudden flick of the rat's tail, a reflex evoked by subarachnoid space access and bolus i.t. injection. […]

[3] = test system: rats with bortezomib CIPN; assay: Bortezomib CIPN mechanical hyperalgesia, Randall-Selitto paw-withdrawal test; format: in vivo, Sprague-Dawley rats; settings: topical 2 μg/μL
Method: as §1, §2
as §3, with “baseline. […]” for “baseline.”

[4] = test system: 5-HT-induced scratching behavior in rats; assay: 5-HT-induced scratching (itch) behavior; format: in vivo; settings: topical, protamine vehicle
Method: Topical hyaluronan attenuates itch behavior in rats. Intradermal administration of serotonin (5-HT) elicited acute scratching behavior, using the method of Nojima and Carstens {Nojima and Carstens, 2003, #99335; PMID: 12814838}. Rats were acclimated to a testing chamber for 30 min, and then briefly anesthetized with 2% isoflurane, during which the fur over the nape of the neck was shaved, and 5-HT (200 μg in 10 μl 0.9% saline vehicle) injected with a 30 gauge needle. In the topical hyaluronan group, hyaluronan (100 μg in 50 μl 75% DMSO in water vehicle) was applied to the skin 30 mins and again 5 mins before administration of 5-HT. Rats were placed back into testing chambers and their behavior video recorded for 40 min. Number of hind paw scratches directed at the injection site were counted by watching video playback at half normal speed, and total number of scratches in 2-min intervals recorded. Rats were treated with 5-HT alone and topical hyaluronan with 5-HT, with 4 days between experimental sessions, allowing for use of paired t-tests to compare data. Data are presented as cumulative number of scratches (FIG. 9A), and as total scratches over the 40-min observation period (FIG. 9B). […] See also, FIG. 10, which includes additional data showing that topical hyaluronan attenuates 5-HT-induced scratching behavior. […] Data are presented as cumulative number of scratches.

rats = settings: previously shown; cited from earlier work

In the case of hyaluronan [500-1200 kDa hyaluronan], the “PGE2-induced hyperalgesia (mechanical nociceptive threshold)” value ([1]; female rats) is reported as “attenuated PGE2-induced hyperalgesia”, the “PGE2-induced hyperalgesia (mechanical nociceptive threshold)” value ([1]; male rats) is reported as “attenuated PGE2-induced hyperalgesia” and the “magnitude of topical anti-hyperalgesia compared with intradermal injection” value ([1]; topical, combined with DMSO) is reported as “anti-hyperalgesia of similar magnitude to that produced by its intradermal injection”. For the same substance, the “duration of anti-hyperalgesic effect after initial topical application” value ([2]; CIPN rats, initial application, DMSO vehicle) was “approximately 60 minutes”, the “hyperalgesia induced by oxaliplatin” value ([2]; female rats given i.t. GPR30 antisense or mismatch ODN, topical 2 μg/μL, 30 μL) was “attenuated the hyperalgesia induced by oxaliplatin only in the GPR30 antisense-treated group” and the “hyperalgesia induced by oxaliplatin” value ([2]; gonad intact female rats, topical 2 μg/μL, 30 μL in DMSO vehicle) was “did not attenuate hyperalgesia”. For the same substance, the “hyperalgesia induced by oxaliplatin” value ([2]; male rats given i.t. CD44 antisense or mismatch ODN, topical 2 μg/μL, 30 μL in DMSO) was “only attenuated the hyperalgesia induced by oxaliplatin in the CD44 mismatch-treated group”, the “CIPN hyperalgesia, effect of hyaluronan molecular weight range” value ([2]; male rats with oxaliplatin CIPN, topical, combined with DMSO) was “produced robust anti-hyperalgesia, of similar magnitude and duration” and the “time at which anti-hyperalgesia was still present after the second administration” value ([2]; male rats, reapplied at the same site after first effect wore off, DMSO vehicle) was no less than 180 min. For the same substance, the “oxaliplatin CIPN hyperalgesia” value ([2]; male rats, topical 1 μg/μL, 30 μL in DMSO, day 7) was “only attenuates CIPN hyperalgesia 10 min after application”, the “oxaliplatin CIPN hyperalgesia” value ([2]; male rats, topical 2 μg/μL in 0.9% saline, without DMSO) was “did not attenuate oxaliplatin CIPN hyperalgesia” and the “anti-hyperalgesia in oxaliplatin CIPN” value ([2]; male rats, topical 2 μg/μL, 30 μL in 5% DMSO) was “did not produce anti-hyperalgesia”. For the same substance, the “anti-hyperalgesia in oxaliplatin CIPN” value ([2]; male rats, topical 2 μg/μL, 30 μL in 15% DMSO) was “did not produce anti-hyperalgesia”, the “anti-hyperalgesia in oxaliplatin CIPN” value ([2]; male rats, topical 2 μg/μL, 30 μL in 20% DMSO) was “produced anti-hyperalgesia” and the “anti-hyperalgesia in oxaliplatin CIPN” value ([2]; male rats, topical 2 μg/μL, 30 μL in 25% DMSO) was “produced anti-hyperalgesia”. The “anti-hyperalgesia in oxaliplatin CIPN” value ([2]; male rats, topical 2 μg/μL, 30 μL in 50% DMSO) was “produced anti-hyperalgesia”, the “anti-hyperalgesia in oxaliplatin CIPN” value ([2]; male rats, topical 2 μg/μL, 30 μL in 75% DMSO) was “produced anti-hyperalgesia” and the “oxaliplatin CIPN hyperalgesia” value ([2]; male rats, topical 2 μg/μL, 30 μL in DMSO, day 7) was “attenuated hyperalgesia 10, 30 and 60 min after application; also recorded: induced anti-hyperalgesia”. The “time by which anti-hyperalgesia dissipated, first administration” value ([2]; male rats, topical 2 μg/μL, 30 μL in DMSO, repeated-administration experiment) was no more than 120 min, the “oxaliplatin CIPN hyperalgesia” value ([2]; male rats, topical 4 μg/μL, 30 μL in DMSO, day 7) was “attenuated hyperalgesia 10, 30 and 60 min after application” and the “time after application by which the anti-hyperalgesic effect dissipated” value ([2]; male rats, topical 2 and 4 μg/μL in DMSO) was no more than 120 min. The “anti-hyperalgesia in oxaliplatin-induced CIPN” value ([2]; ovariectomized female rats, topical 2 μg/μL, 30 μL in DMSO) was “induced anti-hyperalgesia of similar magnitude to that observed in gonad intact male rats”, the “hyperalgesia induced by bortezomib” value ([3]; female rats, 30 μL in DMSO vehicle) was “did not attenuate hyperalgesia” and the “hyperalgesia induced by bortezomib” value ([3]; male rats, 30 μL in DMSO, day 7) was “attenuated hyperalgesia induced by bortezomib”. For the same substance, the “number of 5-HT-induced scratches” value ([4]; female rats) was “significantly attenuated the number of 5-HT-induced scratches”, the “number of 5-HT-induced scratches” value ([4]; male rats) was “significantly attenuated the number of 5-HT-induced scratches” and the “nociceptive effect of intradermal injection” value (rats) was “induced anti-hyperalgesia”.
